Measured values from patent US8207172B2 (Bayer Intellectual Property GmbH, priority 2004, dated 2012).
Structures can show the parent of a compound that is named as a salt.

Tests used:
[1] = system: BT474 (human breast carcinoma); experiment: In vitro tumor cell proliferation assay (Cell Titer-Glo luminescent cell viability), BT474; assay type: cell-based; details: BT-474, 72 h, BT474 cells, 72 hours of drug exposure, ATP luminescence readout, read-out: IC50, anti-proliferative activity (inhibition of cell proliferation)
In short: (§1)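 A431 or BT474 cells were exposed 72 h at 37°C to serially diluted compounds (final 100 μM down to 64 pM, 0.1% DMSO). Viable cells were read by ATP luminescence (CellTiter-Glo) and IC50 values derived.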

[2] = system: A431 cells (human epidermoid carcinoma); experiment: In vitro tumor cell proliferation assay (Cell Titer-Glo luminescent cell viability), A431; assay type: cell-based; details: A-431, 72 h, 72 hours of drug exposure, ATP luminescence readout, read-out: IC50, anti-proliferative activity (inhibition of cell proliferation)
In short: as §1

Compound | IC50 [1] [µM] | IC50 [2] [µM]
CCN1CCN(CCn2cc3c(n2)CCc2c-3sc3ncnc(Nc4ccc(OCc5cccc(C)n5)c(Cl)c4)c23)CC1 [Example 118, N-{3-chloro-4-[(6-methylpyridin-2-yl)methoxy]phenyl}-2-[2-(4-ethylpiperazin-1-yl)ethyl]-4,5-dihydro-2H-pyrimido[5′,4′:4,5]thieno[2,3-e]indazol-6-amine] | ≤ 5 | ≤ 50
CN(C)CC(=O)N1CCC(Cn2cc3c(n2)CCc2c-3sc3ncnc(Nc4ccc(OCc5cccc(F)c5)c(Cl)c4)c23)CC1 [Example 241, N-{3-chloro-4-[(3-fluorobenzyl)oxy]phenyl}-2-({1-[(dimethylamino)acetyl]piperidin-4-yl}methyl)-4,5-dihydro-2H-pyrimido[5′,4′:4,5]thieno[2,3-e]indazol-6-amine trifluoroacetate] | ≤ 1 | ≤ 5
CN(C)C1CCN(CCn2cc3c(n2)CCc2c-3sc3ncnc(Nc4ccc(F)c(Cl)c4)c23)C1 (centres unmarked) [Example 15, N-(3-chloro-4-fluorophenyl)-2-{2-[3-(dimethylamino)pyrrolidin-1-yl]ethyl}-4,5-dihydro-2H-pyrimido[5′,4′:4,5]thieno[2,3-e]indazol-6-amine] | ≤ 1 | ≤ 5
COCCN1CCN(CCn2cc3c(n2)CCc2c-3sc3ncnc(Nc4ccc(OCc5cccc(F)c5)c(Cl)c4)c23)CC1 [Example 122, N-{3-chloro-4-[(3-fluorobenzyl)oxy]phenyl}-2-{2-[4-(2-methoxyethyl)piperazin-1-yl]ethyl}-4,5-dihydro-2H-pyrimido[5′,4′:4,5]thieno[2,3-e]indazol-6-amine] | ≤ 1 | ≤ 5
CS(=O)(=O)CCNCCn1cc2c(n1)CCc1c-2sc2ncnc(Nc3ccc4c(cnn4Cc4ccccc4)c3)c12 [Example 307, N-(1-benzyl-1H-indazol-5-yl)-2-(2-{[2-(methylsulfonyl)ethyl]amino}ethyl)-4,5-dihydro-2H-pyrimido[5′,4′:4,5]thieno[2,3-e]indazol-6-amine] | ≤ 1 | ≤ 50

The remaining lines, values ahead:

IC50 [1] [µM] | IC50 [2] [µM] | Compound
≤ 1 | ≤ 50 | O[C@H](CN1CC[C@H](O)C1)Cn1cc2c(n1)CCc1c-2sc2ncnc(Nc3ccc(OCc4cccc(F)c4)c(Cl)c3)c12 [Example 150, (3S)-1-{(2R)-3-[6-({3-chloro-4-[(3-fluorobenzyl)oxy]phenyl}amino)-4,5-dihydro-2H-pyrimido[5′,4′:4,5]thieno[2,3-e]indazol-2-yl]-2-hydroxypropyl}pyrrolidin-3-ol trifluoroacetate (salt)]
≤ 1 | ≤ 50 | O=C(Cn1ncc2c1CCc1c-2sc2ncnc(Nc3ccc(OCc4cccc(F)c4)c(Cl)c3)c12)Nc1ccccn1 [Example 195, 2-[6-({3-chloro-4-[(3-fluorobenzyl)oxy]phenyl}amino)-4,5-dihydro-3H-pyrimido[5′,4′:4,5]thieno[2,3-e]indazol-3-yl]-N-pyridin-2-ylacetamide]
≤ 1 | ≤ 5 | OCCn1cc2c(n1)CCc1c-2sc2ncnc(Nc3ccc(F)c(Cl)c3)c12 [Example 1, 2-{6-[(3-chloro-4-fluorophenyl)amino]-4,5-dihydro-2H-pyrimido[5′,4′:4,5]thieno[2,3-e]indazol-2-yl}ethanol]
≤ 1 | ≤ 5 | COCCNCCn1ncc2c1CCc1c-2sc2ncnc(Nc3ccc4c(cnn4Cc4cccc(F)c4)c3)c12 [Example 297, N-[1-(3-fluorobenzyl)-1H-indazol-5-yl]-3-{2-[(2-methoxyethyl)amino]ethyl}-4,5-dihydro-3H-pyrimido[5′,4′:4,5]thieno[2,3-e]indazol-6-amine]
≤ 1 | ≤ 5 | CC[N+]1(CC)CCC(n2cc3c(n2)CCc2c-3sc3ncnc(Nc4ccc(OCc5cccc(F)c5)c(Cl)c4)c23)CC1 [Example 226, 4-[6-({3-chloro-4-[(3-fluorobenzyl)oxy]phenyl}amino)-4,5-dihydro-2H-pyrimido[5′,4′:4,5]thieno[2,3-e]indazol-2-yl]-1,1-diethylpiperidinium trifluoroacetate]
